In patent publication US12084473B2, “β-D-2′-deoxy-2′-α-fluoro-2′-β-C-substituted-2-modified-N6-substituted purine nucleotides for HCV treatment” (Atea Pharmaceuticals, Inc., priority 2015, dated 2024):
Read-outs that look alike come from different tables or passages of the source.

What was measured:
human hepatocytes = assay: Metabolic studies in primary hepatocytes; format: in vitro ADME; details: 10 μM, 2-24 hr
Procedure: The metabolism of compounds 25, 27 and 5-2, at a concentration of 10 μM, were investigated in fresh primary cultures of human, dog and mouse hepatocytes. Plated hepatocytes from humans (XenoTech, mixed gender, pooled from 10 donors), male Beagle dog (BioreclamationIVT), and male ICR/CD-1 mice (BioreclamationIVT, 8 donors) in 6-well plates with matrigel overlay were incubated in singlet with 10 μM TA. After 2, 4, 6, 8 or 24 hr, intracellular levels of nucleotide prodrugs and their potential metabolites (prodrugs, monophosphates, triphosphates and nucleosides) were quantitated by LC-MS/MS. Concentrations below the lower limit of quantitation (1.5 pmol/10^6 cells for prodrugs, monophosphates and nucleosides and 12 pmol/10^6 cells for triphosphates) were extrapolated from the standard curves.

[1] = system: HCV genotype 1b luciferase reporter replicon; assay: microbe, parasite or virus in culture; format: cell-based
[2] = system: HCV Genotype 3a-1, NS5B Mutation none; assay: microbe, parasite or virus in culture; format: cell-based
In short: (§1)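 Patient-derived NS5B regions, wild-type or carrying resistance-associated variants, were RT-PCR-amplified from plasma viral RNA and cloned into HCV replicon resistance test vectors. These vectors were electroporated into Huh-7 cells to measure replication sensitivity to test compounds.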

[3] = system: HCV Genotype 1b, NS5B Mutation none; assay: microbe, parasite or virus in culture; format: cell-based
In short: as §1

[4] = system: HCV Genotype 4a, NS5B Mutation none; assay: microbe, parasite or virus in culture; format: cell-based
In short: as §1

[5] = system: HCV Genotype 3a-2, NS5B Mutation none; assay: microbe, parasite or virus in culture; format: cell-based
In short: as §1

[6] = system: HCV Genotype 1b, NS5B Mutation C316N; assay: microbe, parasite or virus in culture; format: cell-based
In short: as §1

[7] = system: HCV Genotype 4d, NS5B Mutation none; assay: microbe, parasite or virus in culture; format: cell-based
In short: as §1

[8] = system: HCV Genotype 2b, NS5B Mutation none; assay: microbe, parasite or virus in culture; format: cell-based
In short: as §1

[9] = system: HCV Genotype 1a, NS5B Mutation L159F; assay: microbe, parasite or virus in culture; format: cell-based
In short: as §1

[10] = system: HCV Genotype 1a, NS5B Mutation L159F and S282T; assay: microbe, parasite or virus in culture; format: cell-based
In short: as §1

[11] = system: HCV Genotype 1a, NS5B Mutation none; assay: microbe, parasite or virus in culture; format: cell-based
In short: as §1

[12] = system: HCV Genotype 2a, NS5B Mutation none; assay: microbe, parasite or virus in culture; format: cell-based
In short: as §1

HCV S282T replicon = assay: microbe, parasite or virus in culture; format: cell-based
HCV wild type replicon = assay: microbe, parasite or virus in culture; format: cell-based
[13] = system: HCV genotype 1b luciferase reporter replicon; assay: microbe, parasite or virus in culture; format: cell-based; details: Hepatitis C virus, HuH-7-Luc/Neo-ET, 72 h, read-out: HCV Replicon EC50/EC95: EC50
[14] = Hepatitis C virus, read-out: IC50 Value
[15] = genotype 3a-1, no NS5B mutation
[16] = genotype 3a-2, no NS5B mutation
[17] = Hepatitis C virus, 96 h, read-out: IC50 Value
[18] = genotype 1a, NS5B L159F and S282T

## CC(C)OC(=O)[C@H](C)N[P@](=O)(OCC1O[C@@H](n2cnc3c(N(C)C4CC4)nc(N)nc32)[C@](C)(F)[C@@H]1O)Oc1ccccc1 (stereo partly drawn) [Compound 27, isopropyl ((((S)-(2R,3R,4R,5R)-5-(2-amino-6-(methylcyclopropanamino)-9H-purin-9-yl)-4-fluoro-3-hydroxy-4-methyltetrahydrofuran-2-yl)methoxy)-phenoxy-phosphoryl)-L-alaninate]
Human hepatocytes
  predominant metabolite observed in cultured human hepatocytes: β-D-2′-deoxy-2′-α-fluoro-2′-β-methyl-guanine triphosphate
[1]; Hepatitis C virus, read-out: EC50 in a replicon assay
  EC50: 5 nM
[1]; Hepatitis C virus, Huh-7 luc/neo ET cells, 72 hours, luciferase, read-out: HCV Replicon EC50/EC95: EC95
  EC95: 25 nM
[1]; Table 7
  Fold increase in activity compared to parent nucleoside: >1,100
[2]; [14]
  IC50: 4.4 nM
[2]; [15]
  Fold Change in IC50 from Sofosbuvir: 28.4
  Fold Change in IC95 from Sofosbuvir: 27.2
  IC95 Value: 25.4 nM
[3]; [14]
  IC50: 5 nM
[3]; genotype 1b, no NS5B mutation
  Fold Change in IC50 from Sofosbuvir: 0.9
  Fold Change in IC95 from Sofosbuvir: 22.2
  IC95 Value: 28.9 nM
[4]; [14]
  IC50: 3.6 nM
[4]; genotype 4a, no NS5B mutation
  Fold Change in IC50 from Sofosbuvir: 20.7
  Fold Change in IC95 from Sofosbuvir: 17.9
  IC95 Value: 38.1 nM
[5]; [14]
  IC50: 4.5 nM
[5]; [16]
  Fold Change in IC50 from Sofosbuvir: 27.5
  Fold Change in IC95 from Sofosbuvir: 34.6
  IC95 Value: 23.3 nM
[6]
  cross-resistance to C316N mutant: neither 25, 27 nor 5-2 compound showed any evidence of cross-resistance
[6]; [14]
  IC50: 3.1 nM
[6]; genotype 1b, NS5B C316N
  Fold Change in IC50 from Sofosbuvir: 23.5
  Fold Change in IC95 from Sofosbuvir: 28.7
  IC95 Value: 16.5 nM
[7]; [17]
  IC50: 5.6 nM
[7]; genotype 4d, no NS5B mutation
  Fold Change in IC50 from Sofosbuvir: 16.7
  Fold Change in IC95 from Sofosbuvir: 26.6
  IC95 Value: 38.4 nM
[8]; [14]
  IC50: 3.1 nM
[8]; genotype 2b, no NS5B mutation
  Fold Change in IC50 from Sofosbuvir: 14.4
  Fold Change in IC95 from Sofosbuvir: 20.1
  IC95 Value: 14.7 nM
[9]
  cross-resistance to L159F mutant: neither 25, 27 nor 5-2 compound showed any evidence of cross-resistance
[9]; [14]
  IC50: 5.1 nM
[9]; genotype 1a, NS5B L159F
  Fold Change in IC50 from Sofosbuvir: 22.3
  Fold Change in IC95 from Sofosbuvir: 29.5
  IC95 Value: 36.2 nM
[10]
  cross-resistance to L159F and S282T mutant: neither 25, 27 nor 5-2 compound showed any evidence of cross-resistance
[10]; [14]
  IC50: 14.9 nM
[10]; [18]
  Fold Change in IC50 from Sofosbuvir: 108.4
  Fold Change in IC95 from Sofosbuvir: 119.7
  IC95 Value: 141.6 nM
[11]; [14]
  IC50: 4.2 nM
[11]; genotype 1a, no NS5B mutation
  Fold Change in IC50 from Sofosbuvir: 15.0
  Fold Change in IC95 from Sofosbuvir: 19.3
  IC95 Value: 26.4 nM
[12]; [14]
  IC50: 2.9 nM
[12]; genotype 2a, no NS5B mutation
  Fold Change in IC50 from Sofosbuvir: 7.9
  Fold Change in IC95 from Sofosbuvir: 12.0
  IC95 Value: 16.2 nM
HCV S282T replicon
  cross-resistance to S282T variant: neither 25, 27, nor 5-2 compounds showed any evidence of cross-resistance
HCV S282T replicon; [17]
  IC50: < 1 nM
HCV S282T replicon; NS5B Mutation S282T
  Fold Change in IC50 from Sofosbuvir: >278
  Fold Change in IC95 from Sofosbuvir: >84.7
HCV S282T replicon; NS5B Mutation S282T, transient assay, 96-hr
  IC95 Value: 11.8 nM
HCV wild type replicon
  IC95 Value: 4.1 nM
HCV wild type replicon; [17]
  IC50: < 1 nM
HCV wild type replicon; NS5B Mutation None
  Fold Change in IC50 from Sofosbuvir: >36.4
  Fold Change in IC95 from Sofosbuvir: 53.2
[13]
  EC50: 5 nM
